Laboratory results from patent publication US12221422B2, “Compounds and their use for the treatment of alpha1-antitrypsin deficiency” (CENTESSA PHARMACEUTICALS (UK) LIMITED, priority 2018, dated 2025).

Columns and labels:
human Z A1AT = human Z A1AT (Homo sapiens, UniProt P01009, E366K); assay: A1AT cell secretion assay using HEK-Z cells (ELISA); assay type: cell-based; parameters: expressed in transfected cells; host or cells: HEK-Z (HEK-EBNA cells containing the Z A1AT plasmid); conditions: HEK-Z cells, 10, 33, 100 and 333 nM, 48 h, cell supernatant
Sequence of human Z A1AT (P01009 25-418 E366K): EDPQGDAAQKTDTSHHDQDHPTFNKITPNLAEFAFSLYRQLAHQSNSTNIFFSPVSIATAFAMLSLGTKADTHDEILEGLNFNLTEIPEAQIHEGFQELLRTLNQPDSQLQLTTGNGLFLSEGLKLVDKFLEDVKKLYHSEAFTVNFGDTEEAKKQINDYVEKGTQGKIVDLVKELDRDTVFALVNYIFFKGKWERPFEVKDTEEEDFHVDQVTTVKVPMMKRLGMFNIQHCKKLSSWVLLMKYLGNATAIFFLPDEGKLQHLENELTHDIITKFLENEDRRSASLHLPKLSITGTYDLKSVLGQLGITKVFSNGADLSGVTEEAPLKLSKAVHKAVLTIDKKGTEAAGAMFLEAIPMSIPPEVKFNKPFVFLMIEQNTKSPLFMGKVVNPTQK
Procedure: HEK-Z cells, a human embryonic kidney cell line stably transfected with the human Z A1AT gene, were plated into 96 well plates (3.0×10^5 cells/ml with 200 μl of media/well) overnight at 37° C. in a humidified atmosphere containing 5% CO2. Following incubation cells were washed with 200 μl serum-free media three times and media was replaced with treatments in quadruplicate using serum-free media containing either vehicle, 10 μM suberanilohydroxamic acid (SAHA), N,N-dimethyl-4-((6-oxopyrimidin-1(6H)-yl)methyl)benzamide (at concentrations of 10, 33, 100 and 333 nM), N,N-(bis-methyl-d3)-4-((6-oxopyrimidin-1(6H)-yl)methyl)benzamide (at concentrations of 10, 33, 100 and 333 nM) or N-methyl-4-((6-oxopyrimidin-1(6H)-yl)methyl)benzamide (at concentrations of 10, 33, 100 and 333 nM) for 48 h in a 37° C. incubator in a final volume of 200 μl. At the end of the incubation step the supernatants were removed from the wells, centrifuged at 1000×g at 4° C. for 10 min and were assayed for human A1AT levels by ELISA (Human Serpin A1/α1-antitrypsin duo set ELISA, R& D Systems, DY1268) per manufacturer's instructions.
(§1) Briefly, a 96 well plate was coated with human A1AT capture antibody overnight at room temperature (1:180 dilution from stock, 100 μl final volume/well). The capture antibody was then removed and wells washed three times with 300 μl wash buffer (0.05% Tween 20 in PBS) and then 200 μl reagent diluent (25% Tween 20 in PBS) was incubated in each well for 1 h at room temperature. […] After which, 50 μl stop solution (2M H2SO4) was added and optical density (OD) of each well was read at 450 nm with 570 nm blank subtracted from each well using a microplate reader. A 4 parameter logistic curve was constructed using GraphPad Prism 7 and A1AT concentrations were determined in each sample by interpolation from a standard curve and multiplying by the appropriate dilution factor.
(§2) The amount of A1AT secreted from transfected HEK-EBNA cells into the media was measured by ELISA. […]

[1] = Plasma protein binding, human plasma (rapid equilibrium dialysis); assay type: in vitro ADME; conditions: 37° C.
Procedure: The extent to which compounds of the invention bound to plasma proteins such as albumin and alpha-1 acid glycoprotein within human, rat or mouse plasma was determined by rapid equilibrium dialysis. Compounds were incubated at 5 μM for 4 hours at 37° C. Plasma protein binding for N,N-dimethyl-4-((6-oxopyrimidin-1(6H)-yl)methyl)benzamide in mouse plasma was 37.3%, in rat plasma was 14.8% and in human plasma was 30.6%.

human M A1AT = molecular target: T1, human M A1AT (Homo sapiens, UniProt P01009); assay: A1AT cell secretion assay using HEK-M cells (ELISA); assay type: cell-based; conditions: 10 μM, 48 h
T1 construct: expressed in transfected cells; host or cells: HEK-M (HEK-EBNA cells containing the M A1AT plasmid)
T1 sequence (P01009 25-418): as the sequence (P01009 25-418 E366K) above, with K342E counted along it
Procedure: HEK-M cells, a human embryonic kidney cell line stably transfected with the human M A1AT gene, were plated into 96 well plates (3.0×10^5 cells/ml with 200 μl of media/well) overnight at 37° C. in a humidified atmosphere containing 5% CO2. Following incubation cells were washed with 200 μl serum-free media three times and media was replaced with serum-free media containing either vehicle, 10 μM suberanilohydroxamic acid (SAHA) or a compound of the invention (at 10 μM) in replicates of six for 48 h in a 37° C. incubator in a final volume of 200 μl. […]
as §1, with “volume/well).” for “volume/well). The capture antibody was then removed and wells washed three times with 300 μl wash buffer (0.05% Tween 20 in PBS) and then 200 μl reagent diluent (25% Tween 20 in PBS) was incubated in each well for 1 h at room temperature.”
as §2

CN(C)C(=O)c1ccc(Cn2cnccc2=O)cc1 [N,N-dimethyl-4-((6-oxopyrimidin-1(6H)-yl)methyl)benzamide]
secretion of Z A1AT as measured by ELISA (human Z A1AT): stimulates secretion of Z A1AT in a dose dependent manner
fraction unbound at 4 h, 5 μM [1]: 0.694
secretion of M A1AT as measured by ELISA (human M A1AT): does not stimulate secretion of M A1AT
